Peptide text beside a SMILES is read from it. * marks the point of attachment. Cbz = O=C(OCc1ccccc1)*; CH2F = FC*
Biological target: T1, caspase-7 GFPspark (Homo sapiens, UniProt P55210)
T1 construct: host or cells: MCF-7, HEK-293
T1 sequence (P55210 24-198 limits assumed): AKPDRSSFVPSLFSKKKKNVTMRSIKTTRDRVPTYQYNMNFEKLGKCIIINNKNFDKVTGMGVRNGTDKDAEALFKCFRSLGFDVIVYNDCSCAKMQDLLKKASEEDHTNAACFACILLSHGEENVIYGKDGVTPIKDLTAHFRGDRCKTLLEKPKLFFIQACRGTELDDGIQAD
T1 sequence (P55210 207-303 limits assumed): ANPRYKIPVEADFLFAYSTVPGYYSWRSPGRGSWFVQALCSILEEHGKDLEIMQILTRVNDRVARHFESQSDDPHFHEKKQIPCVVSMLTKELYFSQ
Test: AbRGT FRET imaging / acceptor photobleaching, caspase-7 GFPspark in MCF-7 cells
Assay type: cell-based
Conditions: for effect of inhibitor on FRET signal / signal in Rh channel in presence of inhibitor: MCF-7, inhibitor 50 μM pre-treatment, STS 6 h, probe 1
Experimental: FIGS. 13A and 13B depict specific detection of caspase-7 GFPspark in MCF-7 cells. […] Cells were fixed and the fluorescence signal was collected in GFP, FRET and Rh channel. […] Bar graph representing the rise in GFP intensity in ROI after rhodamine photobleaching was 89 a.u. as compared to the unbleached background, i.e., 9 a.u. FRET efficiency was calculated to be 32±2%.
FIG. 15 depicts confocal images of MCF-7 cells in GFP, FRET and Rh channel Caspase-7 GFPspark transfected MCF-7 cells were treated with STS (1 μM) for 6 h and labelled (a) (i) with probe 1 (1 μM) probe. Cells were pre-treated with (a) (ii) Z-VAD-FMK (50 μM) or (a) (iii) Q-VD-OPh (50 μM) pan-caspase inhibitors 1 h before the probe labelling. Caspase-9 GFPspark transfected MCF-7 cells were treated with STS (1 μM) for 4 h and labelled (b) (i) with probe 1 (1 μM) probe. Cells were pre-treated with (b) (ii) Z-VAD-FMK (50 μM) 1 h before probe labelling. Caspase-8 GFPspark overexpressing HEK-293 cells were treated with TRAIL (1 μg/ml) for 5 h and labelled (c) (i) with the probe 1. Cells were pre-treated with (c) (ii) Z-VAD-FMK (50 μM) 1 h before probe labelling.
Plasmids and transient transfection: GFPspark tagged plasmids; caspase-3 GFPspark tag (Cat: HG10050-ACG), caspase-7 GFPspark tag (HG10049-ACG), caspase-8 GFPspark (HG10078-ACG), caspase-9 GFPspark (HG11151-ACG) and cathepsin B GFPspark (HG10483-ACG) were procured from Sino Biological. For transfection, cells were seeded in a 6-well plate at a density of 0.4 million cells/well. At 60-70% confluency, cells were transiently transfected for 24 h at 37° C. with 1 μg of the GFPspark tagged plasmid DNA construct mixed with 5 μL of Lipofectamine 2000 (Invitrogen) according to the manufacturer's instructions. 24 h post-transfection, cells were visualized under the GFP filter for GFPspark expression under fluorescence microscope at 10× magnification.
Labelling of active caspases in apoptotic cells with FABP: After 24 h of transfection, cells were treated with STS (1 μM) drug or TRAIL (1 μg/ml) for apoptotic induction and incubated for 2, 4, 6 and 8 h at 37° C. in a humidified atmosphere of 5% CO2/95% air. Cells were gently scraped off from the surface at the end of apoptotic induction and centrifuged at 3000 rpm for 5 min. The cell pellet was resuspended in 300 μL of fresh DMEM containing 1 μM of probe for probe 2 and incubated for additional 2 h at 37° C. in a humidified atmosphere of 5% CO2. Cells were again centrifuged at 3000 rpm for 5 mins, and the supernatant was decanted. Cells were washed with 1×PBS, thrice finally resuspended in 20 μL of 1×PBS. The cell suspension was put on a slide, and a coverslip was placed over it. It was left for air drying. Slides were then imaged for GFP, FRET and rhodamine fluorescence signals under confocal microscopy.
Inhibitor assay: Cells were pre-treated with 50 μM of Z-VAD-FMK or Q-VD-OPh or E-64 inhibitor 1 h before probe 1 labelling and incubated for 1 h at 37° C. in a humidified atmosphere of 5% CO2. Cells were gently scraped off from the surface at the end of inhibitor treatment and centrifuged at 3000 rpm for 5 min Cells were then labelled with the probe 1 as described in the previous section.
Fluorescence imaging studies, FRET procedure: Images were collected on Zeiss LSM710 confocal microscope with 25 mW argon laser using Zen10 software. The laser was tuned to lines at 488 nm (excitation laser for GFPspark) and 561 nm (excitation laser for rhodamine) Cells were examined with a 40× 1.3 NA Zeiss oil immersion objective and 2.4× zoom. Images were collected in the three channels; GFP channel, argon laser tuned at 488 nm with 2% laser intensity and fluorescence emission was collected in emission range of 490-550 nm; rhodamine channel, argon laser tuned to 561 nm laser with 2% laser intensity and fluorescence emission was collected in range 550-650 nm and FRET channel with excitation laser of GFPSPARK channel and emission range of rhodamine channel. […]

Row | Molecule | effect of inhibitor on FRET signal | signal in Rh channel in presence of inhibitor | rise in GFP intensity in ROI after rhodamine photobleaching (MCF-7, STS 1 μM 5 h, probe 1 μM) [a.u.] | calculated FRET efficiency (MCF-7, STS 1 μM 5 h or 6 h, probe 1 μM) [%]
1 | CC(C)[C@H](NC(=O)c1ccc2ccccc2n1)C(=O)N[C@@H](CC(=O)O)C(=O)COc1c(F)cccc1F [Q-VD-OPh] | abolished | significant punctate labelling | – | –
2 | COC(=O)C[C@H](NC(=O)[C@H](C)NC(=O)[C@@H](NC(=O)OCc1ccccc1)C(C)C)C(=O)CF [Z-VAD-FMK] (Cbz-Val-Ala-Asp(OMe)-CH2F) | completely abolished | completely abolished | – | –
3 | Rhodamine-VAD-fluoromethyl ketone [probe 1] | – | – | 89 | 32±2

Reference: US11834698B2, “Process for determining enzyme activity in a cell by activity-based reporter gene technology (ABRGT)” (INDIAN INSTITUTE OF SCIENCE EDUCATION AND RESEARCH, priority 2018, dated 2023)
